Laboratory results: PMC12429880, “EGFR-Targeted Photodynamic Treatment of Triple Negative Breast Cancer Cell Lines Using Porphyrin–Peptide Conjugates: Synthesis and Mechanistic Insight” (Molecules, 2025)

Legend:
[1] = Photostability (photobleaching) under irradiation; type: physicochemical
Description: Compounds incorporating photosensitizing chromophores, such as tetrapyrrolic macrocycles, are susceptible to ROS-mediated photodegradation upon irradiation. Photostability of PSs is a critical parameter for achieving safe, effective, and precise PDT. It ensures sustained generation of ROS, minimizes the formation of potentially toxic or mutagenic degradation products, and preserves the structural and photophysical integrity of the PS during systemic circulation and tumor accumulation. High photostability is particularly important in delayed-activation protocols, enabling selective localization in target tissues. […] Thus, before assessing the photodynamic activity of the conjugates in TNBC cell lines, the photostability of 2 and conjugates 6, 7, and 8 was evaluated under the same conditions employed for the cell viability assays and the other biological studies reported in the present study. […]
To assess whether the peptide moiety underwent photoinduced degradation, samples of porphyrin 2 and its conjugates 6–8 were recovered and analyzed by HPLC at the end of the irradiation period.
For the chemical and biological analyses a 500 W tungsten white halogen lamp was used. […] The lamp has an irradiance of 22 mW/cm^2 (an average value determined between 380 and 780 nm with a Licor-1800 spectroradiometer, Li-COR, Bad Homburg, Germany), equating to 158 J/cm^2 of fluence over 2 h. […]

[2] = tested on: MCF7; test: Intrinsic (dark) cytotoxicity, MTT assay without photoactivation; type: cell-based; conditions: no photoactivation, ten times the maximum PDT concentration (10 µM), mean ± SD of 5 independent experiments, in % (unit assumed)
Protocol: (§1) The photodynamic effect of conjugates 6–8 on cell viability, compared to the reference compound 2, was evaluated using the MTT ([3-(4,5-dimethylthiazol-2-yl)-2,5-diphenyltetrazolium bromide]) assay. Briefly, 3.5 × 10^3 cells per well were seeded in 96-well plates and incubated for 48 h to allow for adherence and growth. Following this incubation period, cells were treated with increasing concentrations of the test compounds (ranging from 1 to 1000 nM), prepared in complete culture medium. All compound dilutions were prepared to ensure a final DMSO concentration of 0.1% (v/v), which is considered non-toxic. Control samples included cells cultured in complete medium alone, as well as a vehicle control treated with 0.1% DMSO in the absence of any compound (PS treatment was omitted). 24 h after treatment with PS, the medium was replaced with 1X PBS. Photoactivation was performed using a 500 W white tungsten halogen lamp, delivering an irradiance of 22 mW/cm^2, corresponding to a total fluence of 158 J/cm^2 over a 2 h irradiation period. To prevent thermal damage from the light source, a cooling system was employed by placing a circulating water filter between the lamp and the irradiation area to dissipate excess heat. Following irradiation, the PBS was replaced with fresh, PS-free culture medium, and cells were incubated at 37 °C. 24 h later, MTT was added to each well at a final concentration of 0.4 mg/mL, and cells were incubated for 3 h at 37 °C to allow the MTT metabolization in viable cells. The resulting formazan crystals were then dissolved in DMSO. Optical density was measured at 590 nm using an Infinite® 200 PRO plate reader (Tecan Life Sciences, Switzerland), and the resulting data were analyzed by non-linear regression using GraphPad PRISM 9.2.0 software (GraphPad Software Inc., San Diego, CA, USA), and IC50 values were extrapolated from these curves.
(§2) The potential intrinsic cytotoxicity of the compounds was assessed under identical experimental conditions, except that the photoactivation step was omitted. […]

[3] = tested on: MDA-MB231; test: as above; type: cell-based; conditions: no photoactivation, ten times the maximum PDT concentration (10 µM), mean ± SD of 5 independent experiments, in % (unit assumed)
Protocol: as §1, §2

[4] = tested on: MDA-MB453; test: as above; type: cell-based; conditions: no photoactivation, ten times the maximum PDT concentration (10 µM), mean ± SD of 5 independent experiments, in % (unit assumed)
Protocol: as §1, §2

[5] = tested on: MDA-MB231; test: Intracellular ROS generation (DCFH-DA); type: cell-based; conditions: 24 h at IC50, 2 h irradiation with 10 μM DCFH-DA, 3 independent experiments
Protocol: (§3) Intracellular ROS generation was assessed using the fluorogenic probe 2′,7′-dichlorodihydrofluorescein diacetate (DCFH-DA; Invitrogen, Molecular Probes). Once internalized, DCFH-DA is hydrolyzed by intracellular esterases to form non-fluorescent dichlorodihydrofluorescein (DCFH), which ROS subsequently oxidizes to the highly fluorescent dichlorofluorescein (DCF). MDA-MB453 and MDA-MB231 cells were seeded in black 96-well plates and treated with the respective PSs at their IC50 concentrations for 24 h. Cells were then irradiated in the presence of 10 μM DCFH-DA. To quantify ROS production, fluorescence intensity was measured using a fluorescence microscope (excitation: 488 nm; emission: 520 nm). Quantitative analysis of fluorescence intensity, expressed in arbitrary fluorescence units, was performed using ImageJ software, version 1.53e, and normalized to untreated control samples.

[6] = tested on: MDA-MB453; test: Intracellular ROS generation (DCFH-DA); type: cell-based; conditions: 24 h at IC50, 2 h irradiation with 10 μM DCFH-DA, 3 independent experiments
Protocol: as §3

Soret band intensity retained after irradiation ([1]; 10 μM in PBS, 2 h exposure to 500 W tungsten-halogen lamp, 22 mW/cm^2, 158 J/cm^2, UV-Vis): approximately 90%
Structure (SMILES): COC(=O)c1ccc(-c2c3nc(c([N+](=O)[O-])c4ccc([nH]4)c(-c4ccc(C(=O)OC)cc4)c4nc(cc5ccc2[nH]5)C=C4)C=C3)cc1 [compound 2, 10-Nitro-5,15-bis(4-carbomethoxyphenyl)porphyrin]
HPLC analysis at the end of the irradiation period (structural integrity) ([1]; after 2 h irradiation with 500 W tungsten-halogen lamp, HPLC): No shifts in retention times were observed
Survival fraction (dark toxicity) [2]: 89.7 ± 1.16
Survival fraction (dark toxicity) [3]: 91.2 ± 1.26
Survival fraction (dark toxicity) [4]: 90.8 ± 0.66
Intracellular ROS levels [5]: higher levels of intracellular ROS
Intracellular ROS levels [6]: higher levels of intracellular ROS
